In patent US20090069565A1, “NEW INDOLE DERIVATIVES AS FACTOR XA INHIBITORS” (priority 2001, published 2009):

Molecular target: human factor Xa (Homo sapiens, UniProt P00742)
Experiment: Factor Xa assay (chromogenic, substrate S-2765);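 also: purified enzyme preincubated with inhibitor for 10 min before substrate addition, final reaction volume 100 µl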
Format: biochemical
Conditions: read-out: Ki(FXa)

human factor Xa, sequence (P00742 235-488 limits assumed): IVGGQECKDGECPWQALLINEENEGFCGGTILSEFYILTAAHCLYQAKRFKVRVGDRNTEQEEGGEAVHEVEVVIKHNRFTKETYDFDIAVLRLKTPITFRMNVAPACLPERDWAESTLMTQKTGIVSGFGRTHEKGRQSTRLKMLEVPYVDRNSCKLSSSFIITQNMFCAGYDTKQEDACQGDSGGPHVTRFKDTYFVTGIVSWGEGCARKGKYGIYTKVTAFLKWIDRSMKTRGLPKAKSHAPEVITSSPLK
human factor Xa, sequence (P00742 41-179 partner limits assumed): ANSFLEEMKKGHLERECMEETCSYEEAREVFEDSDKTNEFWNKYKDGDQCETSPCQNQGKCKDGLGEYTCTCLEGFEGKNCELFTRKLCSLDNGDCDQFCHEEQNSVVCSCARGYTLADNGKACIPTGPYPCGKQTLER

Ki | Structure (SMILES)
250 nM | NC(=O)CN1CCC(NC(=O)c2cc3ccccc3n2Cc2cc(-c3ccc(Cl)s3)on2)CC1 [Example 262, 1-[5-(5-chloro-thiophen-2-yl)-isoxazol-3-ylmethyl]-1H-indole-2-carboxylic acid (1-carbamoylmethyl-piperidin-4-yl)-amide]
580 nM | CNC(=O)CN1CCC(NC(=O)c2cc3ccccc3n2Cc2cc(-c3ccc(Cl)s3)on2)CC1 [Example 263, 1-[5-(5-chloro-thiophen-2-yl)-isoxazol-3-ylmethyl]-1H-indole-2-carboxylic acid (1-methylcarbamoylmethyl-piperidin-4-yl)-amide]
559 nM | O=C(NC1CCN(Cc2ncc[nH]2)CC1)c1cc2ccccc2n1Cc1cc(-c2ccc(Cl)s2)on1 [Example 264, 1-[5-(5-chloro-thiophen-2-yl)-isoxazol-3-ylmethyl]-1H-indole-2-carboxylic acid [1-(1H-imidazol-2-ylmethyl)-piperidin-4-yl]-amide]
404 nM | Cn1ccnc1CN1CCC(NC(=O)c2cc3ccccc3n2Cc2cc(-c3ccc(Cl)s3)on2)CC1 [Example 265, 1-[5-(5-chloro-thiophen-2-yl)-isoxazol-3-ylmethyl]-1H-indole-2-carboxylic acid [1-(1-methyl-1H-imidazol-2-ylmethyl)-piperidin-4-yl]-amide]
891 nM | NCC(=O)N1CCC(NC(=O)c2cc3ccccc3n2Cc2cc(-c3ccc(Cl)s3)on2)CC1 [Example 267, 1-[5-(5-chloro-thiophen-2-yl)-isoxazol-3-ylmethyl]-1H-indole-2-carboxylic acid [1-(2-amino-acetyl)-piperidin-4-yl]-amide]
42 nM | CCOC(=O)OC(C)OC(=O)c1ccc2c(c1)cc(C(=O)NC1CCN(C(C)C)CC1)n2Cc1cc(-c2ccc(Cl)s2)on1 (stereo not shown) [Example 268, 1-[5-(5-Chloro-thiophen-2-yl)-isoxazol-3-ylmethyl]-2-(1-isopropyl-piperidin-4-ylcarbamoyl)-1H-indole-5-carboxylic acid 1-ethoxycarbonyloxy-ethyl ester]
7 nM | CCOC(=O)OC(C)OC(=O)c1cccc2c1cc(C(=O)NC1CCN(C(C)C)CC1)n2Cc1cc(-c2ccc(Cl)s2)on1 (stereo not shown) [Example 269, 1-[5-(5-Chloro-thiophen-2-yl)-isoxazol-3-ylmethyl]-2-(1-isopropyl-piperidin-4-ylcarbamoyl)-1H-indole-4-carboxylic acid 1-ethoxycarbonyloxy-ethyl ester]
13 nM | CC(C)N1CCC(NC(=O)c2cc3c(C(=O)OCOC(=O)C(C)(C)C)cccc3n2Cc2cc(-c3ccc(Cl)s3)on2)CC1 [Example 270, 1-[5-(5-Chloro-thiophen-2-yl)-isoxazol-3-ylmethyl]-2-(1-isopropyl-piperidin-4-ylcarbamoyl)-1H-indole-4-carboxylic acid 2,2-dimethyl-propionyloxymethyl ester]
92 nM | CC(OC(=O)c1ccc2c(c1)cc(C(=O)NC1CCN(C(C)C)CC1)n2Cc1cc(-c2ccc(Cl)s2)on1)OC(=O)C(C)(C)C (stereo not shown) [Example 271, 1-[5-(5-Chloro-thiophen-2-yl)-isoxazol-3-ylmethyl]-2-(1-isopropyl-piperidin-4-ylcarbamoyl)-1H-indole-5-carboxylic acid 1-(2,2-dimethyl-propionyloxy)-ethyl ester]
17 nM | CC(OC(=O)c1cccc2c1cc(C(=O)NC1CCN(C(C)C)CC1)n2Cc1cc(-c2ccc(Cl)s2)on1)OC(=O)C(C)(C)C (stereo not shown) [Example 272, 1-[5-(5-Chloro-thiophen-2-yl)-isoxazol-3-ylmethyl]-2-(1-isopropyl-piperidin-4-ylcarbamoyl)-1H-indole-4-carboxylic acid 1-(2,2-dimethyl-propionyloxy)-ethyl ester]
